Data as given in paper PMC11227560, “Tyrosol blocks E. coli anaerobic biofilm formation via YbfA and FNR to increase antibiotic susceptibility” (Nature Communications, 2024).

Target: T1, YbfA (Escherichia coli, UniProt P0AAU2)
T1 construct: recombinant 6xHis-tagged YbfA (pET28a), ybfA gene cloned from E. coli W3110
Assay: isothermal titration calorimetry (ITC), […] °C
Assay type: binding

T1 sequence (P0AAU2 22-68): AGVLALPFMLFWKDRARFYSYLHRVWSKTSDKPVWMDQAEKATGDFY

## OCCc1ccc(O)cc1 [tyrosol]
  Kd: 4.65 ± 0.11 µM
